Laboratory results: patent US8455475B2 (Gruenenthal GmbH, priority 2009, dated 2013)

Molecular target: T1, rat B1R (bradykinin receptor 1) (Rattus norvegicus, UniProt P97583)
T1 construct: expressed in transfected cells; host or cells: CHO K1 cells
T1 sequence (P97583 1-337): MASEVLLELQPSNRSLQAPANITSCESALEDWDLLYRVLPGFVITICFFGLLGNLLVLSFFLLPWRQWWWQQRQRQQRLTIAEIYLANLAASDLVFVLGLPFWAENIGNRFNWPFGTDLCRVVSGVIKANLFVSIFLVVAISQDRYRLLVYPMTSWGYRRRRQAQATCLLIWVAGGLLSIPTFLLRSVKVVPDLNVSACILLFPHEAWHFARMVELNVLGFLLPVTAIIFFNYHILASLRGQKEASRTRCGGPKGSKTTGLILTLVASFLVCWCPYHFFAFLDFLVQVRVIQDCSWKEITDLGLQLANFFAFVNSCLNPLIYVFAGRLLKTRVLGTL
Experiment: FLIPR Ca2+ assay (Fluo-4) on CHO K1 cells stably transfected with the B1R gene of the rat (rB1R cells): % inhibition at 10 μM / IC50, agonist Des-Arg9-bradykinin
Assay type: cell-based
Details: CHO-K1, rat B1R
Procedure, shortened: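 Using a two-addition FLIPR protocol, compound (10 μM for % values; concentration series for IC50) was preincubated 10–20 min with Fluo-4-loaded B1R-expressing CHO K1 cells before EC80 agonist challenge. Suppression of Ca2+ inflow, read as peak fluorescence, is expressed relative to maximum achievable inhibition; duplicate/triplicate, ≥2 independent experiments.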

| SMILES | inhibition at 10 µM |
| --- | --- |
| O=C(Nc1ccc(F)c(Cl)c1)N1CCC2(CC1)CCN(C(=O)c1ccc3c(c1)C(N(C(=O)c1ccccc1Cl)C1CC1)CC3)C2 (stereo not drawn) [IND_CC-713, 2-[3-[(2-Chloro-benzoyl)-cyclopropyl-amino]-2,3-dihydro-1H-indene-5-carbonyl]-N-(3-chloro-4-fluoro-phenyl)-2,8-diazaspiro[4.5]decane-8-carboxylic acid amide] | 77% |
| Cc1cccc(Cl)c1C(=O)NC1CCc2ccc(C(=O)N3CCC4(CCN(Cc5c(C)noc5C)CC4)C3)cc21 (stereo not drawn) [IND_CC-730, 2-Chloro-N-[6-[8-[(3,5-dimethyl-isoxazol-4-yl)-methyl]-2,8-diazaspiro-[4.5]decane-2-carbonyl]-2,3-dihydro-1H-inden-1-yl]-6-methyl-benzamide] | 75% |
| Cc1ccccc1C(=O)NC1CCc2ccc(C(=O)N3CCC4(CC3)CCN(c3ccncc3)CC4)cc21 (stereo not drawn) [IND_CC-346, 2-Methyl-N-[6-(9-pyridin-4-yl-3,9-diazaspiro[5.5]undecane-3-carbonyl)-2,3-dihydro-1H-inden-1-yl]-benzamide] | 104% |
| O=C(c1ccc2c(c1)C(N(C(=O)c1ccccc1Cl)C1CC1)CC2)N1CCC2(CCN(C(=O)c3ccc(F)cc3F)CC2)C1 (stereo not drawn) [IND_CC-606, 2-Chloro-N-cyclopropyl-N-[6-[8-(2,4-difluoro-benzoyl)-2,8-diazaspiro[4.5]decane-2-carbonyl]-2,3-dihydro-1H-inden-1-yl]-benzamide] | 66% |
| O=C(c1ccc2c(c1)C(NS(=O)(=O)c1c(Cl)cccc1Cl)CC2)N1CCC2(CC1)CCN(c1ccncc1)CC2 (stereo not drawn) [IND_CC-322, 2,6-Dichloro-N-[6-(9-pyridin-4-yl-3,9-diazaspiro[5.5]undecane-3-carbonyl)-2,3-dihydro-1H-inden-1-yl]-benzenesulfonic acid amide] | 102% |
| O=C(NC1CCc2ccc(C(=O)N3CCC4(CCN(c5ccncc5)CC4)C3)cc21)c1ccc(F)cc1C(F)(F)F (stereo not drawn) [IND_CC-382, 4-Fluoro-N-[6-(8-pyridin-4-yl-2,8-diazaspiro[4.5]decane-2-carbonyl)-2,3-dihydro-1H-inden-1-yl]-2-(trifluoromethyl)-benzamide] | 103% |
| O=C(NC1CCc2ccc(C(=O)N3CCC4(CCN(Cc5ccc6nccnc6c5)CC4)C3)cc21)c1cc(Cl)ccc1F (stereo not drawn) [IND_CC-672, 5-Chloro-2-fluoro-N-[6-[8-(quinoxalin-6-yl-methyl)-2,8-diazaspiro[4.5]decane-2-carbonyl]-2,3-dihydro-1H-inden-1-yl]-benzamide] | 88% |
| CC(C)(C)CC(=O)N1CCC2(CC1)CCN(C(=O)c1ccc3c(c1)C(NC(=O)c1sccc1Cl)CC3)C2 (stereo not drawn) [IND_CC-583, 3-Chloro-N-[6-[8-(3,3-dimethyl-butanoyl)-2,8-diazaspiro[4.5]decane-2-carbonyl]-2,3-dihydro-1H-inden-1-yl]-thiophene-2-carboxylic acid amide] | 75% |
| N#Cc1ccc(CN2CCC3(CC2)CCN(C(=O)c2ccc4c(c2)C(NC(=O)c2ccccc2Cl)CC4)C3)cc1 (stereo not drawn) [IND_CC-561, 2-Chloro-N-[6-[8-[(4-cyano-phenyl)-methyl]-2,8-diazaspiro[4.5]decane-2-carbonyl]-2,3-dihydro-1H-inden-1-yl]-benzamide] | 85% |
| COc1cccc(F)c1CN1CCC2(CC1)CCN(C(=O)c1ccc3c(c1)C(N(C(=O)c1ccccc1Cl)C1CC1)CC3)C2 (stereo not drawn) [IND_CC-525, 2-Chloro-N-cyclopropyl-N-[6-[8-[(2-fluoro-6-methoxy-phenyl)-methyl]-2,8-diazaspiro[4.5]decane-2-carbonyl]-2,3-dihydro-1H-inden-1-yl]-benzamide] | 62% |
| O=C(NC1CCc2ccc(C(=O)N3CCC4(CCN(Cc5csnn5)CC4)CC3)cc21)c1cc(Cl)ccc1F (stereo not drawn) [IND_CC-652, 5-Chloro-2-fluoro-N-[6-[9-([1,2,3]thiadiazol-4-yl-methyl)-3,9-diazaspiro[5.5]undecane-3-carbonyl]-2,3-dihydro-1H-inden-1-yl]-benzamide] | 53% |
| Cn1nc(C(C)(C)C)cc1C(=O)N1CCC2(CCN(C(=O)c3ccc4c(c3)C(N(C(=O)c3ccccc3Cl)C3CC3)CC4)C2)CC1 (stereo not drawn) [IND_CC-607, N-[6-[8-(5-tert-Butyl-2-methyl-2H-pyrazole-3-carbonyl)-2,8-diazaspiro[4.5]decane-2-carbonyl]-2,3-dihydro-1H-inden-1-yl]-2-chloro-N-cyclopropyl-benzamide] | 67% |
| O=C(NC1CCc2ccc(C(=O)N3CCC4(CCN(c5ccncc5)CC4)C3)cc21)c1ccccc1F (stereo not drawn) [IND_CC-402, 2-Fluoro-N-[6-(8-pyridin-4-yl-2,8-diazaspiro[4.5]decane-2-carbonyl)-2,3-dihydro-1H-inden-1-yl]-benzamide] | 102% |
| N#Cc1cccc(CN2CCC3(CC2)CCN(C(=O)c2ccc4c(c2)C(NC(=O)c2cc(Cl)ccc2F)CC4)CC3)c1 (stereo not drawn) [IND_CC-654, 5-Chloro-N-[6-[9-[(3-cyano-phenyl)-methyl]-3,9-diazaspiro[5.5]undecane-3-carbonyl]-2,3-dihydro-1H-inden-1-yl]-2-fluoro-benzamide] | 60% |
| N#Cc1ccccc1CN1CCC2(CC1)CCN(C(=O)c1ccc3c(c1)C(NC(=O)c1c(F)cccc1Cl)CC3)C2 (stereo not drawn) [IND_CC-740, 2-Chloro-N-[6-[8-[(2-cyano-phenyl)-methyl]-2,8-diazaspiro[4.5]decane-2-carbonyl]-2,3-dihydro-1H-inden-1-yl]-6-fluoro-benzamide] | 88% |
| O=C(NC1CCc2ccc(C(=O)N3CCC4(CC3)CCN(c3ccncc3)CC4)cc21)C1CC1 (stereo not drawn) [IND_CC-368, N-[6-(9-Pyridin-4-yl-3,9-diazaspiro[5.5]undecane-3-carbonyl)-2,3-dihydro-1H-inden-1-yl]-cyclopropanecarboxylic acid amide] | 87% |
| COc1cc(C)c(C(=O)NC2CCc3ccc(C(=O)N4CCC5(CCN(c6ccncc6)CC5)C4)cc32)c(C)c1 (stereo not drawn) [Ind_CC-088, 4-methoxy-2,6-dimethyl-N-[6-(8-pyridin-4-yl-2,8-diazaspiro[4.5]decane-2-carbonyl)-2,3-dihydro-1H-inden-1-yl]-benzamide] | 93% |
| COc1cc(C)c(S(=O)(=O)NC2CCc3ccc(C(=O)N4CCC5(CCN(c6ccncc6)CC5)C4)cc32)c(C)c1 (stereo not drawn) [Ind_CC-087, 4-methoxy-2,6-dimethyl-N-[6-(8-pyridin-4-yl-2,8-diazaspiro[4.5]decane-2-carbonyl)-2,3-dihydro-1H-inden-1-yl]-benzenesulfonic acid amide] | 100% |
| Cc1cccc(Cl)c1C(=O)NC1CCc2ccc(C(=O)N3CCC4(CCN(CCCc5cccc(F)c5)CC4)C3)cc21 (stereo not drawn) [IND_CC-770, 2-Chloro-N-[6-[8-[3-(3-fluorophenyl)-propyl]-2,8-diazaspiro[4.5]decane-2-carbonyl]-2,3-dihydro-1H-inden-1-yl]-6-methyl-benzamide] | 109% |
| O=C(NC1CCc2ccc(C(=O)N3CCC4(CC3)CCN(c3ccncc3)CC4)cc21)c1ccccc1F (stereo not drawn) [IND_CC-399, 2-Fluoro-N-[6-(9-pyridin-4-yl-3,9-diazaspiro[5.5]undecane-3-carbonyl)-2,3-dihydro-1H-inden-1-yl]-benzamide] | 101% |
| O=C(NC1CCc2ccc(C(=O)N3CCC4(CCN(CCCc5ccc(F)cc5)CC4)C3)cc21)c1c(F)cccc1Cl (stereo not drawn) [IND_CC-782, 2-Chloro-6-fluoro-N-[6-[8-[3-(4-fluorophenyl)-propyl]-2,8-diazaspiro[4.5]decane-2-carbonyl]-2,3-dihydro-1H-inden-1-yl]-benzamide] | 107% |
